From patent US20250154138A1, “Small Molecule IL-17A Modulators” (BeiGene, Ltd., priority 2022, published 2025)

Tests used:
[1] = target: human IL-17A / human IL-17RA (Homo sapiens (Human), UniProt Q16552); test: Human IL-17A biochemical assay (HTRF, blocking of IL-17A binding to IL-17RA); settings: 0.4 nM IL-17A, 0.3 nM IL-17RA, max compound concentration 10 uM
Procedure, shortened: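 Steps: compound dilutions (max 10 uM, 10 points) pre-incubate with 0.4 nM IL-17A for 3 h at RT; 0.3 nM IL-17RA added for 1 h; HTRF antibody pair added for 1 h; fluorescence ratio read and percent inhibition fitted to a four-parameter logistic for IC50.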

[2] = system: IL-17-induced GROα secretion from HT-29 cells; test: GROα release assay in human colorectal adenocarcinoma epithelial cell (HT-29, ELISA); type: cell-based; settings: Homo sapiens, HT-29, 48 h, 10 ng/mL IL-17A, highest concentration 10 μM, read-out: Cellular assay HT29 cell/CXCL1 IC50
Procedure, shortened: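 IC50 values come from four-parameter fits of GROα levels, quantified by ELISA (450 nm, standard curve) in supernatants. Compounds, 4-fold serially diluted from 10 μM, were mixed 15 min with IL-17A (10 ng/mL final) before 48 h incubation with HT-29 cells at 37°C.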

Sequence of human IL-17A / human IL-17RA (Q16552 24-155): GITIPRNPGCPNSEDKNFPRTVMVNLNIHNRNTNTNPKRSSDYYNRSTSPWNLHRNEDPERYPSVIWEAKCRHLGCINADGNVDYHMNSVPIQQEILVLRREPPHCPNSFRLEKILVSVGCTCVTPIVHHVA

Structure (SMILES) | IC50 [1] | IC50 [2]
Cc1nonc1C(=O)N[C@H](C(=O)Nc1ccc2c(c1)CC(C(=O)NC1(c3cc(F)ccc3F)CC1)(N1CC3(CC3)CNC1=O)C2)C1CCC(F)(F)CC1 (stereo partly drawn) [Example 233, N-((1S)-1-(4,4-difluorocyclohexyl)-2-((2-((1-(2,5-difluorophenyl)cyclopropyl)carbamoyl)-2-(6-oxo-5,7-diazaspiro[2.5]octan-5-yl)-2,3-dihydro-1H-inden-5-yl)amino)-2-oxoethyl)-4-methyl-1,2,5-oxadiazole-3-carboxamide] | 77.8 nM | 90.1 nM
Cc1nonc1C(=O)N[C@H](C(=O)Nc1ccc2c(c1)CC(C(=O)Nc1ccccc1)(N1C[C@@H](C(C)C)NC1=O)C2)C(C1CC1)C1CC1 (stereo partly drawn) [Example 234, N-((2S)-1,1-dicyclopropyl-3-((2-((R)-4-isopropyl-2-oxoimidazolidin-1-yl)-2-(phenylcarbamoyl)-2,3-dihydro-1H-inden-5-yl)amino)-3-oxopropan-2-yl)-4-methyl-1,2,5-oxadiazole-3-carboxamide] | 340 nM | 207 nM
CC(C)[C@@H]1CN(C2(C(=O)Nc3ccccc3)Cc3ccc(NC(=O)[C@@H](NC(=O)c4ccnn4C(C)C)C(C4CC4)C4CC4)cc3C2)C(=O)N1 (stereo partly drawn) [Example 235, N-((2S)-1,1-dicyclopropyl-3-((2-((R)-4-isopropyl-2-oxoimidazolidin-1-yl)-2-(phenylcarbamoyl)-2,3-dihydro-1H-inden-5-yl)amino)-3-oxopropan-2-yl)-1-isopropyl-1H-pyrazole-5-carboxamide] | 229 nM | 214 nM
Cc1nonc1C(=O)N[C@H](C(=O)Nc1ccc2c(c1)CC(C(=O)Nc1cccc(F)c1)(N1C[C@@H](C(C)C)NC1=O)C2)C(C1CC1)C1CC1 (stereo partly drawn) [Example 236, N-((2S)-1,1-dicyclopropyl-3-((2-((3-fluorophenyl)carbamoyl)-2-((R)-4-isopropyl-2-oxoimidazolidin-1-yl)-2,3-dihydro-1H-inden-5-yl)amino)-3-oxopropan-2-yl)-4-methyl-1,2,5-oxadiazole-3-carboxamide] | 245 nM | 537 nM
Cn1nccc1C(=O)N[C@H](C(=O)Nc1ccc2c(c1)OC(CN1C[C@@H](C(F)(F)F)NC1=O)C2)C1CCCCC1 (stereo partly drawn) [Example 237, N-((1S)-1-cyclohexyl-2-oxo-2-((2-(((S)-2-oxo-4-(trifluoromethyl)imidazolidin-1-yl)methyl)-2,3-dihydrobenzofuran-6-yl)amino)ethyl)-1-methyl-1H-pyrazole-5-carboxamide] | 27.1 nM | 53.3 nM
Cc1nonc1C(=O)N[C@H](C(=O)Nc1ccc2c(c1)CC(C(O)C(F)(F)F)(N1C[C@@H](C(C)C)NC1=O)C2)C(C1CC1)C1CC1 (stereo partly drawn) [Example 238, N-((2S)-1,1-dicyclopropyl-3-((2-((R)-4-isopropyl-2-oxoimidazolidin-1-yl)-2-(2,2,2-trifluoro-1-hydroxyethyl)-2,3-dihydro-1H-inden-5-yl)amino)-3-oxopropan-2-yl)-4-methyl-1,2,5-oxadiazole-3-carboxamide] | 222 nM | 137 nM
Cc1conc1C(=O)N[C@H](C(=O)Nc1ccc2c(c1)CC(N1C[C@@H](C(F)(F)F)NC1=O)C2)C(C1CC1)C1CC1 (stereo partly drawn) [Example 239, N-((2S)-1,1-dicyclopropyl-3-oxo-3-((2-((S)-2-oxo-4-(trifluoromethyl)imidazolidin-1-yl)-2,3-dihydro-1H-inden-5-yl)amino)propan-2-yl)-4-methylisoxazole-3-carboxamide] | 977 nM | 3210 nM
Cn1nccc1C(=O)N[C@H](C(=O)Nc1ccc2oc(CN3C[C@@H](C(F)(F)F)NC3=O)cc2c1)C1CCCCC1 [Example 240, N-((S)-1-cyclohexyl-2-oxo-2-((2-(((S)-2-oxo-4-(trifluoromethyl)imidazolidin-1-yl)methyl)benzofuran-5-yl)amino)ethyl)-1-methyl-1H-pyrazole-5-carboxamide] | 200 nM | 264 nM
Cc1nonc1C(=O)N[C@H](C(=O)Nc1ccc2c(c1)CC(Cc1ccc(F)cc1)(N1C[C@@H](C(C)C)NC1=O)C2)C(C1CC1)C1CC1 (stereo partly drawn) [Example 241, N-((2S)-1,1-dicyclopropyl-3-((2-(4-fluorobenzyl)-2-((R)-4-isopropyl-2-oxoimidazolidin-1-yl)-2,3-dihydro-1H-inden-5-yl)amino)-3-oxopropan-2-yl)-4-methyl-1,2,5-oxadiazole-3-carboxamide] | 2920 nM | 5800 nM
Cc1nonc1C(=O)N[C@H](C(=O)Nc1ccc2c(c1)CC(C(=O)Nc1ccccc1)(N1C[C@@H](C(C)C)NC1=O)C2)C1CCC(F)(F)CC1 (stereo partly drawn) [Example 242, N-((1S)-1-(4,4-difluorocyclohexyl)-2-((2-((R)-4-isopropyl-2-oxoimidazolidin-1-yl)-2-(phenylcarbamoyl)-2,3-dihydro-1H-inden-5-yl)amino)-2-oxoethyl)-4-methyl-1,2,5-oxadiazole-3-carboxamide] | 250 nM | 652 nM
Cc1nonc1C(=O)N[C@H](C(=O)Nc1ccc2c(c1)CC(C(=O)Nc1cccc(F)c1)(N1C[C@@H](C(C)C)NC1=O)C2)C1CCC(F)(F)CC1 (stereo partly drawn) [Example 243, N-((1S)-1-(4,4-difluorocyclohexyl)-2-((2-((3-fluorophenyl)carbamoyl)-2-((R)-4-isopropyl-2-oxoimidazolidin-1-yl)-2,3-dihydro-1H-inden-5-yl)amino)-2-oxoethyl)-4-methyl-1,2,5-oxadiazole-3-carboxamide] | 290 nM | 317 nM
COCC1(N2C[C@@H](C(C)C)NC2=O)Cc2ccc(NC(=O)[C@@H](NC(=O)c3nonc3C)C(C3CC3)C3CC3)cc2C1 (stereo partly drawn) [Example 244, N-((2S)-1,1-dicyclopropyl-3-((2-((R)-4-isopropyl-2-oxoimidazolidin-1-yl)-2-(methoxymethyl)-2,3-dihydro-1H-inden-5-yl)amino)-3-oxopropan-2-yl)-4-methyl-1,2,5-oxadiazole-3-carboxamide] | 2130 nM | 1570 nM
COCC1(N2C[C@@H](C(C)C)NC2=O)Cc2ccc(NC(=O)[C@@H](NC(=O)c3ccnn3C)C(C3CC3)C3CC3)cc2C1 (stereo partly drawn) [Example 245, N-((2S)-1,1-dicyclopropyl-3-((2-((R)-4-isopropyl-2-oxoimidazolidin-1-yl)-2-(methoxymethyl)-2,3-dihydro-1H-inden-5-yl)amino)-3-oxopropan-2-yl)-1-methyl-1H-pyrazole-5-carboxamide] | 52.4 nM | 92.5 nM
Cc1nonc1C(=O)N[C@H](C(=O)Nc1ccc2c(c1)CC(c1cn3ncccc3n1)(N1C[C@@H](C(C)C)NC1=O)C2)C(C1CC1)C1CC1 (stereo partly drawn) [Example 246, N-((2S)-1,1-dicyclopropyl-3-((2-(imidazo[1,2-b]pyridazin-2-yl)-2-((R)-4-isopropyl-2-oxoimidazolidin-1-yl)-2,3-dihydro-1H-inden-5-yl)amino)-3-oxopropan-2-yl)-4-methyl-1,2,5-oxadiazole-3-carboxamide] | 257 nM | 1220 nM
Cc1nonc1C(=O)N[C@H](C(=O)Nc1ccc2c(c1)CC(N1CC3(CC3)CNC1=O)(C(C)(C)O)C2)C1CCC(F)(F)CC1 (stereo partly drawn) [Example 247, N-((1S)-1-(4,4-difluorocyclohexyl)-2-((2-(2-hydroxypropan-2-yl)-2-(6-oxo-5,7-diazaspiro[2.5]octan-5-yl)-2,3-dihydro-1H-inden-5-yl)amino)-2-oxoethyl)-4-methyl-1,2,5-oxadiazole-3-carboxamide] | 20.9 nM | 40.8 nM
CNC(=O)C1(N2C[C@@H](C(C)C)NC2=O)Cc2ccc(NC(=O)[C@@H](NC(=O)c3nonc3C)C(C3CC3)C3CC3)cc2C1 (stereo partly drawn) [Example 248, N-((2S)-1,1-dicyclopropyl-3-((2-((R)-4-isopropyl-2-oxoimidazolidin-1-yl)-2-(methylcarbamoyl)-2,3-dihydro-1H-inden-5-yl)amino)-3-oxopropan-2-yl)-4-methyl-1,2,5-oxadiazole-3-carboxamide] | 126 nM | 427 nM
Cc1nonc1C(=O)N[C@H](C(=O)Nc1ccc2c(c1)CC(C(=O)Nc1ccccc1F)(N1C[C@@H](C(C)C)NC1=O)C2)C1CCC(F)(F)CC1 (stereo partly drawn) [Example 249, N-((1S)-1-(4,4-difluorocyclohexyl)-2-((2-((2-fluorophenyl)carbamoyl)-2-((R)-4-isopropyl-2-oxoimidazolidin-1-yl)-2,3-dihydro-1H-inden-5-yl)amino)-2-oxoethyl)-4-methyl-1,2,5-oxadiazole-3-carboxamide] | 226 nM | 695 nM
Cc1nonc1C(=O)N[C@H](C(=O)Nc1ccc2c(c1)CC(c1ccc(F)cc1)(N1C[C@@H](C(C)C)NC1=O)C2)C(C1CC1)C1CC1 (stereo partly drawn) [Example 251, N-((2S)-1,1-dicyclopropyl-3-((2-(4-fluorophenyl)-2-((R)-4-isopropyl-2-oxoimidazolidin-1-yl)-2,3-dihydro-1H-inden-5-yl)amino)-3-oxopropan-2-yl)-4-methyl-1,2,5-oxadiazole-3-carboxamide] | 1510 nM | 1510 nM
Cc1nonc1C(=O)N[C@H](C(=O)Nc1ccc2c(c1)CC(c1c[nH]c(C3CC3)n1)(N1C[C@@H](C(C)C)NC1=O)C2)C(C1CC1)C1CC1 (stereo partly drawn) [Example 252, N-((2S)-1,1-dicyclopropyl-3-((2-(2-cyclopropyl-1H-imidazol-4-yl)-2-((R)-4-isopropyl-2-oxoimidazolidin-1-yl)-2,3-dihydro-1H-inden-5-yl)amino)-3-oxopropan-2-yl)-4-methyl-1,2,5-oxadiazole-3-carboxamide] | 829 nM | 1160 nM
